This is an account of results in patent US20240409585A1, “MACROCYCLIC IMMUNOMODULATORS” (priority 2021, published 2024).

As a reminder, the IC50 is the concentration that gives 50% inhibition.

Bridge positions count the residues as written; N and C are the ends. Square brackets hold non-standard residues; d marks the D form. Peptide text beside a SMILES is read from it. * marks the point of attachment. Bip = N[C@@H](Cc1ccc(-c2ccccc2)cc1)C(=O)O; Phe(2-Cl) = N[C@@H](Cc1ccccc1Cl)C(=O)O; Phe(3-Me) = Cc1cccc(C[C@H](N)C(=O)O)c1; 4Pal = N[C@@H](Cc1ccncc1)C(=O)O; Cha = N[C@@H](CC1CCCCC1)C(=O)O; dPip = O=C(O)[C@H]1CCCCN1; Carboxymethyl = O=C(O)C*; NMeA = CN[C@@H](C)C(=O)O; Nle = CCCC[C@H](N)C(=O)O; Orn = NCCC[C@H](N)C(=O)O; Dab = NCC[C@H](N)C(=O)O; Dap = NC[C@H](N)C(=O)O

T1 sequence (Q15116 25-288): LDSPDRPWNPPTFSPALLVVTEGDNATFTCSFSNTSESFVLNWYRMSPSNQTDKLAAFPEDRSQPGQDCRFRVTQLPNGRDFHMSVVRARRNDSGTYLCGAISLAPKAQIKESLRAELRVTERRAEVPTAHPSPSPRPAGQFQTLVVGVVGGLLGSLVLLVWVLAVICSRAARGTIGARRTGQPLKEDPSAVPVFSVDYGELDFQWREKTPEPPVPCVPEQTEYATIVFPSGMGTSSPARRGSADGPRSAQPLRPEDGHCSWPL

This assay addresses T1, PE-labeled human PD-L1-Ig binding to Jurkat cell line over-expressing human PD-1 (Jurkat-PD-1) (Homo sapiens, UniProt Q15116).
T1 construct: expressed in transfected cells; host or cells: Jurkat
In words: Jurkat-PD-1 Cell Binding High-Content Screening Assay (CBA): Method 1. The note with it: Jurkat-hPD-1 cells, PE-labeled PD-L1-Ig 20 nM final; read-out: Jurkat HPDL1 PD1 IC50 (uM) (Method 1).
With `Cc1cccc(C[C@@H]2NC(=O)[C@H](CC(=O)O)NC(=O)[C@H](Cc3ccc(OCC(=O)O)cc3)NC(=O)[C@H](Cc3ccncc3)NC(=O)CSC[C@@H](C(N)=O)NC(=O)[C@H](CCCN)NC(=O)[C@H](C(C)C)NC(=O)[C@H](CC3CCCCC3)NC(=O)[C@H](CCN)NC(=O)[C@@H](CC(C)C)NC(=O)[C@H](C)N(C)C(=O)[C@H](Cc3ccc(OCC(=O)O)cc3)NC(=O)[C@H](Cc3ccc(-c4ccccc4)cc3)NC(=O)[C@H](Cc3ccc(OCC(=O)O)cc3)NC2=O)c1` [Compound 1662] ({CH2CO}-[4Pal]Y(Carboxymethyl)D[Phe(3-Me)]Y(Carboxymethyl)[Bip]Y(Carboxymethyl)[NMeA][dL][Dab][Cha]V[Orn]C-NH2; thioether N-14), the IC50 stood at 0.01 µM.

For the compound `CCCC[C@@H]1NC(=O)[C@H](CCCNC(=N)N)NC(=O)[C@@H](CC(C)C)NC(=O)[C@H](C)N(C)C(=O)[C@H](C(C)C)NC(=O)[C@H](Cc2ccc(-c3ccccc3)cc2)NC(=O)[C@H](C(C)C)NC(=O)[C@H](Cc2c[nH]c3ccccc23)NC(=O)[C@H](CC(=O)O)NC(=O)[C@H](Cc2ccc(O)cc2)NC(=O)[C@H](CC(N)=O)NC(=O)CSC[C@@H](C(=O)N[C@@H](C)C(N)=O)NC(=O)[C@H]([C@@H](C)O)NC(=O)[C@H](C(C)C)NC1=O` [Compound 1293] ({CH2CO}-NYDWV[Bip]V[NMeA][dL]R[Nle]VTCA-NH2; thioether N-14), the IC50 came to 0.07 µM.

Consider `CC(C)C[C@@H]1NC(=O)[C@H](Cc2c[nH]c3ccccc23)NC(=O)[C@H](CC(=O)O)NC(=O)[C@H](Cc2ccccc2Cl)NC(=O)[C@H](Cc2ccccc2)NC(=O)CSC[C@@H](C(=O)N[C@@H](C)C(N)=O)NC(=O)[C@H](CO)NC(=O)[C@H](C(C)C)NC(=O)[C@H](CC(C)C)NC(=O)[C@H](CC(N)=O)NC(=O)[C@@H](C)NC(=O)[C@H](C)N(C)C(=O)[C@H](C(C)C)NC(=O)[C@H](Cc2ccc(-c3ccccc3)cc2)NC1=O` [Compound 1807] ({CH2CO}-F[Phe(2-Cl)]DWL[Bip]V[NMeA][dA]NLVSCA-NH2; thioether N-14), for which the half-maximal inhibitory concentration (IC50) was found to be 0.24 µM.

Consider `Cc1cccc(C[C@@H]2NC(=O)[C@H](CC(=O)O)NC(=O)[C@H](Cc3ccc(OCC(=O)O)cc3)NC(=O)[C@H](Cc3ccc(OCC(=O)O)cc3)NC(=O)CSC[C@@H](C(N)=O)NC(=O)[C@H](CCCN)NC(=O)[C@H](C(C)C)NC(=O)[C@H](CC3CCCCC3)NC(=O)[C@H](CCN)NC(=O)[C@@H](CC(C)C)NC(=O)[C@H](C)N(C)C(=O)[C@H](Cc3ccc(OCC(=O)O)cc3)NC(=O)[C@H](Cc3ccc(-c4ccccc4)cc3)NC(=O)[C@H](Cc3ccc(OCC(=O)O)cc3)NC2=O)c1` [Compound 1652] ({CH2CO}-Y(Carboxymethyl)Y(Carboxymethyl)D[Phe(3-Me)]Y(Carboxymethyl)[Bip]Y(Carboxymethyl)[NMeA][dL][Dab][Cha]V[Orn]C-NH2; thioether N-14), for which the IC50 amounted to 0.03 µM.

Turning to `CC(C)C[C@@H]1NC(=O)[C@H](CCN)NC(=O)[C@@H](CC(C)C)NC(=O)[C@H]2CCCCN2C(=O)[C@H](C(C)C)NC(=O)[C@H](Cc2ccc(-c3ccccc3)cc2)NC(=O)[C@H](C(C)C)NC(=O)[C@H](Cc2c[nH]c3ccccc23)NC(=O)[C@H](CC(=O)O)NC(=O)[C@H](Cc2ccc(O)cc2)NC(=O)[C@H](CC(N)=O)NC(=O)CSC[C@@H](C(=O)N[C@@H](C)C(N)=O)NC(=O)[C@H]([C@@H](C)O)NC(=O)[C@H](C(C)C)NC1=O` [Compound 1268] ({CH2CO}-NYDWV[Bip]V[dPip][dL][Dab]LVTCA-NH2; thioether N-14), the IC50 worked out at 0.11 µM.

Take `CCCC[C@@H]1NC(=O)[C@H](CCCNC(=N)N)NC(=O)[C@@H](CC(C)C)NC(=O)[C@H](C)N(C)C(=O)[C@H]([C@@H](C)CC)NC(=O)[C@H](Cc2ccc(-c3ccccc3)cc2)NC(=O)[C@H](C(C)C)NC(=O)[C@H](Cc2c[nH]c3ccccc23)NC(=O)[C@H](CC(=O)O)NC(=O)[C@H](Cc2ccc(O)cc2)NC(=O)[C@H](CN)NC(=O)CSC[C@@H](C(=O)N[C@@H](C)C(N)=O)NC(=O)[C@H]([C@@H](C)O)NC(=O)[C@H](C(C)C)NC1=O` [Compound 1496] ({CH2CO}-[Dap]YDWV[Bip]I[NMeA][dL]R[Nle]VTCA-NH2; thioether N-14): the IC50 was 0.18 µM.
